# Legend:
# [1] = system: ethoxyresorufin O-deethylase (EROD) activity (CYP1A-like activity); experiment: EROD assay in zebrafish primary hepatocytes; conditions: zebrafish primary hepatocytes; DIM at concentrations of 2 μM and greater
# Method: (§1) The cells are cultured at 26°C in ambient atmosphere.
# [2] = system: MDR1 (tentatively classified as ABCB5 in zebrafish); experiment: zebrafish in vivo liver transcription, semi-quantitative RT-PCR: MDR1
# Method: (§2) Adult zebrafish were purchased from a commercial fish supplier and acclimatized for at least two-weeks in 20 L tanks with flow-through freshwater at 22°C. A single dose of 15 mg/kg of 5α-cyprinol, 5β-cyprinol 27-sulfate, 5α-scymnol or 5β-scymnol-27 sulfate, dissolved in saline, was injected intraperitoneally. A control group was injected with saline. After 48 hr, the animals were decapitated and livers of three fish (n = 5 each group) were removed, pooled and weighed, totalizing 15 fish per group. Fish were not fed throughout the experimental period. […].
# (§3) To study the transcription of CYP3C1, ABCB5, PXR, GAPDH and β-actin genes in zebrafish, initial fragments of these genes were identified (Genbank: AW202769, Genbank: BQ284593, Genbank: AAM22215, Genbank: BC083506, Genbank: AF057040, respectively). The PCR primers for CYP3C1 were designed using MacVector Software and primers for MDR1 were designed using Primer 3 Software (Whitehead Institute for Biomedical Research; [75]). Primer pairs for amplifying CYP3C1 fragment were 5'-[…]-3' (sense) and 5'-[…]-3' (antisense) and for amplifying ABCB5 were 5'-[…]-3' (sense) and 5'-[…]-3' (antisense). The PCR primers for PXR were 5'-[…]-3' (sense) and 5'-[…]-3' (antisense), for amplifying GAPDH were 5'-[…]-3' (sense) and 5' […] 3' (antisense) and for β-actin were 5'-[…]-3' (sense) and 5'-[…]-3' (antisense). RNA was isolated using Trizol (Invitrogen) according to manufacturer's instructions. Purity and concentration of RNA of each sample were verified at 260 nm. The RNA integrity was checked by non-denaturing gel electrophoresis using 1 μg of total RNA in each sample.
# (§4) Two micrograms of total RNA were reversed transcribed using Ominiscript RT Kit (Qiagen, Valencia, CA, USA). cDNA concentration was checked at 260 nm, and the amount adjusted to 1 μg to perform semi-quantitative RT-PCR. The expected size of the PXR, Cyp3C1, abcb5, GAPDH and β-actin fragments were 577, 477, 218, 234 and 550 bp, respectively. Biotools DNA polymerase (Biotools B&M Labs, S.A., Madrid, Spain) kit was used for the PCR reaction using a thermocycler Personal Mastercycler (Eppendörf) with the following PCR program: 5 cycles of 94°C for 5 s, 72°C for 35 s; 5 cycles of 94°C for 5 s, 70°C for 10 s, 72°C for 35 s; and 23, 24, 35, 15 and 24 cycles (PXR, Cyp3C1, abcb5, GAPDH and β-actin, respectively) of 94°C for 5 s, 61, 54, 48, 49 and 61°C for 10 s (PXR, Cyp3C1, abcb5, GAPDH and β-actin, respectively), and 72°C for 35 s. The PXR, CYP3C1, ABCB5 and GAPDH transcript levels were quantified using Gel-Quant™ (Multiplexed Biotechologies) and β-actin was used to normalize the data. The Shapiro-Wilk W test was used to evaluate normality. When data were parametric the analysis was performed using Student t test; otherwise Mann Whitney U test was applied. […]
# zebrafish PXR = conditions: luciferase reporter in HepG2 cells, normalized to 20 μM androstanol
# CYP3C1 = experiment: zebrafish in vivo liver transcription, semi-quantitative RT-PCR: CYP3C1
# Method: as §2, §3, §4
# [3] = system: testosterone 6β-hydroxylation activity (CYP3A-like activity); experiment: testosterone hydroxylation (HPLC) in zebrafish primary hepatocytes
# Method: as §1
# 100 μL of sample, calibration standard, or quality material standard were pipetted into separate microcentrifuge tubes and mixed with 100 μL of methanol. Samples were vortexed and centrifuged at 13,000 rpm for 4 min. The supernatant was then injected into the HPLC.
# The flow rate was 1.2 mL/min and total run time was 25 min.
# [4] = zebrafish, 15 mg/kg intraperitoneally, single dose, 48 hr
Compound,effect on EROD activity [1],"liver transcription of MDR1 (ABCB5) [2, 4]",activation of recombinant zebrafish PXR (zebrafish PXR),liver transcription of CYP3C1 (CYP3C1; [4]),increase in 6β-hydroxylation activity compared to vehicle-treated control [3],"liver transcription of MDR1 (ABCB5) ([2]; ip, 15 mg/kg, 48 h)","liver transcription of CYP3C1 (CYP3C1; ip, 15 mg/kg, 48 h)"
C[C@H](CCCC(CO)COS(=O)(=O)O)[C@H]1CC[C@H]2[C@@H]3[C@H](O)C[C@H]4C[C@H](O)CC[C@]4(C)[C@H]3C[C@H](O)[C@]12C (stereo partly drawn) [5α-Cyprinol 27-sulfate],found not to affect EROD activity,2.29 ± 0.75 arbitrary units normalized to β-actin,all activate recombinant zebrafish PXR,1.71 ± 0.50 arbitrary units normalized to β-actin,15–20%,,
"C[C@H](CCCC(CO)CO)[C@H]1CC[C@H]2[C@@H]3[C@H](O)C[C@H]4C[C@H](O)CC[C@]4(C)[C@H]3C[C@H](O)[C@]12C [5α-Cyprinol, 5α-cholestan-3α,7α,12α,26,27-pentol]",,,,,,2.00 ± 1.00 arbitrary units normalized to β-actin,1.33 ± 0.33 arbitrary units normalized to β-actin

# Source: article PMC2263054, “Functional evolution of the vitamin D and pregnane X receptors” (BMC Evolutionary Biology, 2007)
